# ChEMBL document CHEMBL1201862, “PubChem BioAssay data set” (2004)
#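 96-well plates; 48 h exposure; 5 concentrations. Endpoints by linear interpolation between flanking doses. Not reached: highest tested concentration assigned. GI50 is the concentration that inhibits growth by half.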 Activity calls are given as the source filed them. Cut-off read from the data, not from the text of the source: active = GI50 up to about 1.1 µM and inactive = higher.
# What was measured:
# Experiment in all cases: growth of human tumour cells (NCI), 48 h
# OVCAR-4 = tested on: OVCAR-4
# TK-10 = tested on: TK-10
# IGROV-1 = tested on: IGROV-1
# SF-539 = tested on: SF-539
# HCC 2998 = tested on: HCC 2998
# SK-MEL-28 = tested on: SK-MEL-28
# A549 = tested on: A549
# UACC-257 = tested on: UACC-257
# SR = tested on: SR
# SK-MEL-2 = tested on: SK-MEL-2
# ACHN = tested on: ACHN
# HOP-62 = tested on: HOP-62
# SNB-78 = tested on: SNB-78
# M14 = tested on: M14
# DLD-1 = tested on: DLD-1
# RPMI-8226 = tested on: RPMI-8226
# Malme-3M = tested on: Malme-3M
# K562 = tested on: K562
# SN12C = tested on: SN12C
# HL-60 = tested on: HL-60
# M19-MEL = tested on: M19-MEL
# RXF 631 = tested on: RXF 631
# SNB-19 = tested on: SNB-19
# OVCAR-3 = tested on: OVCAR-3
# RXF 393 = tested on: RXF 393
# HT-29 = tested on: HT-29
# HCT-15 = tested on: HCT-15
# CCRF-CEM = tested on: CCRF-CEM
# 786-0 = tested on: 786-0
# MOLT-4 = tested on: MOLT-4
# A498 = tested on: A498
# OVCAR-8 = tested on: OVCAR-8
# UO-31 = tested on: UO-31
# KM-20L2 = tested on: KM-20L2
# HCT-116 = tested on: HCT-116
# HOP-92 = tested on: HOP-92
# OVCAR-5 = tested on: OVCAR-5
# SW-620 = tested on: SW-620
# DMS-273 = tested on: DMS-273
# CAKI-1 = tested on: CAKI-1
# XF498 = tested on: XF498
# EKVX = tested on: EKVX
# LOX IMVI = tested on: LOX IMVI
# SF-295 = tested on: SF-295
# SF-268 = tested on: SF-268
# SNB-75 = tested on: SNB-75
# KM12 = tested on: KM12
# HOP-18 = tested on: HOP-18
# NCI-H460 = tested on: NCI-H460
# SK-MEL-5 = tested on: SK-MEL-5
# DMS-114 = tested on: DMS-114
# NCI-H23 = tested on: NCI-H23
# NCI-H226 = tested on: NCI-H226
# LXFL 529 = tested on: LXFL 529
# UACC-62 = tested on: UACC-62
# U-251 = tested on: U-251
# NCI-H522 = tested on: NCI-H522
# COLO 205 = tested on: COLO 205
# SK-OV-3 = tested on: SK-OV-3
structure (smiles),measurement,setting,value
CC(C)=C1CCC(CN2CCCC2)C1=O (stereo not given),GI50,OVCAR-4,17.1 µM (inactive)
same,GI50,TK-10,27.5 µM (inactive)
same,GI50,IGROV-1,75.2 µM (inactive)
same,GI50,SF-539,53.7 µM (inactive)
same,GI50,HCC 2998,20.3 µM (inactive)
same,GI50,SK-MEL-28,26.7 µM (inactive)
same,GI50,A549,> 100 µM (inactive)
same,GI50,UACC-257,24.7 µM (inactive)
same,GI50,SR,15.8 µM (inactive)
same,GI50,SK-MEL-2,29.6 µM (inactive)
same,GI50,ACHN,18.6 µM (inactive)
same,GI50,HOP-62,> 100 µM (inactive)
same,GI50,SNB-78,> 100 µM (inactive)
same,GI50,M14,19.2 µM (inactive)
same,GI50,DLD-1,17.3 µM (inactive)
same,GI50,RPMI-8226,11.8 µM (inactive)
same,GI50,Malme-3M,21.4 µM (inactive)
same,GI50,K562,21.8 µM (inactive)
same,GI50,SN12C,17.6 µM (inactive)
same,GI50,HL-60,19.7 µM (inactive)
same,GI50,M19-MEL,20.6 µM (inactive)
same,GI50,RXF 631,> 100 µM (inactive)
same,GI50,SNB-19,> 100 µM (inactive)
same,GI50,OVCAR-3,17.4 µM (inactive)
same,GI50,RXF 393,21.4 µM (inactive)
same,GI50,HT-29,22.8 µM (inactive)
same,GI50,HCT-15,18.5 µM
same,GI50,CCRF-CEM,17.7 µM (inactive)
same,GI50,786-0,16.9 µM (inactive)
same,GI50,MOLT-4,21.9 µM (inactive)
same,GI50,A498,> 100 µM (inactive)
same,GI50,OVCAR-8,> 100 µM (inactive)
same,GI50,UO-31,20.8 µM (inactive)
same,GI50,KM-20L2,89.7 µM (inactive)
same,GI50,HCT-116,17.7 µM (inactive)
same,GI50,HOP-92,24.6 µM (inactive)
same,GI50,OVCAR-5,94.6 µM (inactive)
same,GI50,SW-620,22.1 µM (inactive)
same,GI50,DMS-273,39.4 µM (inactive)
same,GI50,CAKI-1,13.7 µM (inactive)
same,GI50,XF498,19.1 µM (inactive)
same,GI50,EKVX,> 100 µM (inactive)
same,GI50,LOX IMVI,> 100 µM (inactive)
same,GI50,SF-295,> 100 µM (inactive)
same,GI50,SF-268,33.8 µM (inactive)
same,GI50,SNB-75,55.2 µM (inactive)
same,GI50,KM12,30.2 µM (inactive)
same,GI50,HOP-18,17.5 µM (inactive)
same,GI50,NCI-H460,58.7 µM (inactive)
same,GI50,SK-MEL-5,> 100 µM (inactive)
same,GI50,DMS-114,20.4 µM (inactive)
same,GI50,NCI-H23,> 100 µM (inactive)
same,GI50,NCI-H226,> 100 µM (inactive)
same,GI50,LXFL 529,18 µM (inactive)
same,GI50,UACC-62,> 100 µM (inactive)
O=C(Nc1ccc(Cl)cc1Cl)OC(Cn1cncn1)c1ccc(Cl)cc1Cl (stereo not given),GI50,OVCAR-4,14.4 µM (inactive)
same,GI50,IGROV-1,16.9 µM (inactive)
same,GI50,SF-539,17.9 µM (inactive)
same,GI50,SK-MEL-28,16.3 µM (inactive)
same,GI50,A549,15.5 µM (inactive)
same,GI50,UACC-257,17 µM (inactive)
same,GI50,SR,41.3 µM (inactive)
same,GI50,SK-MEL-2,19.2 µM (inactive)
same,GI50,ACHN,15.5 µM (inactive)
same,GI50,U-251,16.1 µM (inactive)
same,GI50,HOP-62,19.5 µM (inactive)
same,GI50,SNB-78,15.6 µM (inactive)
same,GI50,M14,17.9 µM (inactive)
same,GI50,DLD-1,18.5 µM (inactive)
same,GI50,RPMI-8226,94.6 µM (inactive)
same,GI50,Malme-3M,15 µM (inactive)
same,GI50,K562,15.3 µM (inactive)
same,GI50,SN12C,16.9 µM (inactive)
same,GI50,HL-60,44 µM (inactive)
same,GI50,M19-MEL,17.1 µM (inactive)
same,GI50,RXF 631,18.2 µM (inactive)
same,GI50,SNB-19,16.9 µM (inactive)
same,GI50,OVCAR-3,15.8 µM (inactive)
same,GI50,RXF 393,16.9 µM (inactive)
same,GI50,HT-29,15.2 µM (inactive)
same,GI50,HCT-15,16.6 µM
same,GI50,CCRF-CEM,38.9 µM (inactive)
same,GI50,786-0,19 µM (inactive)
same,GI50,MOLT-4,31.6 µM (inactive)
same,GI50,A498,20 µM (inactive)
same,GI50,OVCAR-8,17.3 µM (inactive)
same,GI50,UO-31,13.2 µM (inactive)
same,GI50,KM-20L2,16.5 µM (inactive)
same,GI50,NCI-H522,16.3 µM (inactive)
same,GI50,HCT-116,14.1 µM (inactive)
same,GI50,COLO 205,17.2 µM (inactive)
same,GI50,SW-620,16.7 µM (inactive)
same,GI50,DMS-273,17.4 µM (inactive)
same,GI50,XF498,14.7 µM (inactive)
same,GI50,EKVX,16 µM (inactive)
same,GI50,LOX IMVI,16.3 µM (inactive)
same,GI50,SF-295,17.4 µM (inactive)
same,GI50,SF-268,17.1 µM (inactive)
same,GI50,SNB-75,16.1 µM (inactive)
same,GI50,SK-OV-3,18.3 µM (inactive)
same,GI50,KM12,17.2 µM (inactive)
same,GI50,HOP-18,23.8 µM (inactive)
same,GI50,SK-MEL-5,16.7 µM (inactive)
same,GI50,DMS-114,16 µM (inactive)
same,GI50,NCI-H23,14.6 µM (inactive)
same,GI50,NCI-H226,19.7 µM (inactive)
same,GI50,LXFL 529,16.2 µM (inactive)
same,GI50,UACC-62,14.8 µM (inactive)
Nc1nc(CCC(=O)Nc2cccc(C(F)(F)F)c2)cc(-c2cccc3ccccc23)n1,GI50,OVCAR-4,> 100 µM (inactive)
same,GI50,TK-10,> 100 µM (inactive)
same,GI50,IGROV-1,> 100 µM (inactive)
same,GI50,SF-539,> 100 µM (inactive)
same,GI50,HCC 2998,> 100 µM (inactive)
same,GI50,SK-MEL-28,> 100 µM (inactive)
same,GI50,A549,> 100 µM (inactive)
same,GI50,UACC-257,> 100 µM (inactive)
same,GI50,SR,> 100 µM (inactive)
same,GI50,SK-MEL-2,> 100 µM (inactive)
same,GI50,ACHN,> 100 µM (inactive)
same,GI50,U-251,> 100 µM (inactive)
same,GI50,HOP-62,> 100 µM (inactive)
same,GI50,SNB-78,> 100 µM (inactive)
same,GI50,M14,> 100 µM (inactive)
same,GI50,DLD-1,> 100 µM (inactive)
same,GI50,Malme-3M,> 100 µM (inactive)
same,GI50,K562,> 100 µM (inactive)
same,GI50,SN12C,> 100 µM (inactive)
same,GI50,HL-60,> 100 µM (inactive)
same,GI50,M19-MEL,> 100 µM (inactive)
same,GI50,RXF 631,> 100 µM (inactive)
same,GI50,SNB-19,> 100 µM (inactive)
same,GI50,OVCAR-3,> 100 µM (inactive)
same,GI50,RXF 393,> 100 µM (inactive)
same,GI50,HT-29,> 100 µM (inactive)
same,GI50,HCT-15,> 100 µM
same,GI50,CCRF-CEM,> 100 µM (inactive)
same,GI50,786-0,> 100 µM (inactive)
same,GI50,MOLT-4,> 100 µM (inactive)
same,GI50,A498,> 100 µM (inactive)
same,GI50,OVCAR-8,> 100 µM (inactive)
same,GI50,UO-31,> 100 µM (inactive)
same,GI50,KM-20L2,> 100 µM (inactive)
same,GI50,NCI-H522,> 100 µM (inactive)
same,GI50,HCT-116,> 100 µM (inactive)
same,GI50,COLO 205,> 100 µM (inactive)
same,GI50,OVCAR-5,> 100 µM (inactive)
same,GI50,SW-620,> 100 µM (inactive)
same,GI50,DMS-273,> 100 µM (inactive)
same,GI50,CAKI-1,> 100 µM (inactive)
same,GI50,XF498,> 100 µM (inactive)
same,GI50,EKVX,> 100 µM (inactive)
same,GI50,LOX IMVI,> 100 µM (inactive)
same,GI50,SF-295,> 100 µM (inactive)
same,GI50,SF-268,> 100 µM (inactive)
same,GI50,SNB-75,> 100 µM (inactive)
same,GI50,SK-OV-3,> 100 µM (inactive)
same,GI50,KM12,> 100 µM (inactive)
same,GI50,HOP-18,> 100 µM (inactive)
same,GI50,NCI-H460,> 100 µM (inactive)
same,GI50,SK-MEL-5,> 100 µM (inactive)
same,GI50,DMS-114,> 100 µM (inactive)
same,GI50,NCI-H23,> 100 µM (inactive)
same,GI50,NCI-H226,> 100 µM (inactive)
same,GI50,LXFL 529,> 100 µM (inactive)
same,GI50,UACC-62,> 100 µM (inactive)
